The values that follow come from ChEMBL document CHEMBL1201862, “PubChem BioAssay data set” (2004).

What all share (experiment): inhibition of tumour cell growth, NCI panel, 48 h
Experiment [1] deals with HT-29.
For experiment [2], the system named is HCT-15.
In experiment [3] the test system is A498.
Experiment [4] has as its system ACHN.
The test system of experiment [5] is BT-549.
For experiment [6], the system named is NCI-H460.
Experiment [7] concerns U-251.
Experiment [8] relates to NCI/ADR-RES.
Experiment [9] has as its system K562.
Experiment [10] deals with UO-31.
Experiment [11] has as its system OVCAR-5.
Experiment [12] has as its system TK-10.
Experiment [13] concerns OVCAR-4.
Experiment [14] concerns RPMI-8226.
In experiment [15] the test system is CCRF-CEM.
Experiment [16] concerns SK-MEL-2.
Experiment [17] relates to HOP-92.
In experiment [18] the test system is SW-620.
For experiment [19], the system named is EKVX.

Structures are written as SMILES.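 Five compound concentrations were applied to cells in 96-well plates for 48 hours; endpoints were derived by simple linear interpolation of the resulting dose-response curve. At the GI50, growth is halved.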 Calls of active or inactive are those of the source. Rule as the data show it: active = GI50 up to about 1.1 µM and inactive = higher.

As to `COC1=CC(=O)C2=C(C1=O)[C@H]1CC[C@]3(C)C(=O)CC[C@H]3[C@@H]1CC2`, the GI50 is 26.3 µM (inactive) in experiment [1]; 27.2 µM in experiment [2]; > 100 µM (inactive) in experiment [3]; 27.3 µM (inactive) in [4]; 19.4 µM (inactive) in [5]; > 100 µM (inactive) in experiment [6]. In addition, the GI50 is 32.2 µM (inactive) in [7]; 20.1 µM (inactive) in experiment [8]; 33.6 µM (inactive) in experiment [9]; 22.2 µM (inactive) in experiment [10]; 20.3 µM (inactive) in experiment [11]; > 100 µM (inactive) in experiment [12]. The GI50 in experiment [13] was 15.8 µM (inactive); in experiment [14], 26.1 µM (inactive); in experiment [15] it was 3.62 µM (inactive); in [16], 18.7 µM (inactive); in experiment [17] it was 19.8 µM (inactive); in [18], 26.4 µM (inactive). The GI50 in experiment [19] is 16.7 µM (inactive).

With `CC(=O)C1=C(N=[N+]=[N-])c2cccc3cccc(c23)C1=O`, the GI50 in experiment [1] was 17.6 µM (inactive); in experiment [2], 15.7 µM; in experiment [3] it was 28.8 µM (inactive); in experiment [4], 16 µM (inactive); in experiment [5], 20.8 µM (inactive); in [6], 21 µM (inactive). The GI50 is 19.2 µM (inactive) in experiment [7]; 25.1 µM (inactive) in experiment [8]; 8.11 µM (inactive) in [9]; 14.6 µM (inactive) in experiment [10]; 16.5 µM (inactive) in experiment [11]; 15.3 µM (inactive) in [12]. Further, the GI50 was 23.6 µM (inactive) in experiment [13]; 18.5 µM (inactive) in [14]; 5.73 µM (inactive) in [15]; 12.4 µM (inactive) in experiment [16]; 21.7 µM (inactive) in [17]; 18.3 µM (inactive) in experiment [18]. Moreover, the GI50 in experiment [19] is 18.2 µM (inactive).

On to `OCCCSCCO`, for which the GI50 is > 100 µM (inactive) in experiment [1]; > 100 µM in experiment [2]; > 100 µM (inactive) in [3]; > 100 µM (inactive) in experiment [4]; > 100 µM (inactive) in experiment [5]; > 100 µM (inactive) in [6]. For the same molecule, the GI50 in [7], in experiment [8], in [9], in [10], in [11] and in experiment [12] was > 100 µM (inactive) each time. Moreover, the GI50 in experiment [13], in experiment [14], in [15], in [16], in experiment [17] and in experiment [18] was > 100 µM (inactive) in each case. In [19], the GI50 was > 100 µM (inactive).

For `CCOC(=O)C#Cc1cccc(C#CC(=O)OCC)c1`, the GI50 in experiment [1] was 4.81 µM (inactive); in experiment [2] it was 3.31 µM; in [3], 12.5 µM (inactive); in experiment [4] it was 6.03 µM (inactive); in [5], 2.28 µM (inactive); in experiment [6], 11.1 µM (inactive). Moreover, the GI50 in experiment [7] is 4.71 µM (inactive); in experiment [8], 6.05 µM (inactive); in experiment [9], 1.91 µM (inactive); in [10] it was 4.51 µM (inactive); in experiment [11], 1.14 µM (inactive); in experiment [12], 5.47 µM (inactive). For the same molecule, the GI50 is 3.59 µM (inactive) in [13]; 4.71 µM (inactive) in experiment [14]; 1.22 µM (inactive) in [15]; 2.19 µM (inactive) in [16]; 5.87 µM (inactive) in experiment [17]; 5.25 µM (inactive) in experiment [18]. Besides, in experiment [19], the GI50 was 1.14 µM (inactive).

For the molecule `N=C(N)N/N=C/c1c(-c2ccc([N+](=O)[O-])cc2)nc2n1CCS2`, the GI50 in experiment [1] was 14.5 µM (inactive); in experiment [2] it was 18.5 µM; in experiment [3], 20.4 µM (inactive); in experiment [4] it was 16.5 µM (inactive); in [5], 17.1 µM (inactive); in experiment [6], 15.3 µM (inactive). Moreover, the GI50 in experiment [7] was 2.3 µM (inactive); in experiment [8] it was > 72.4 µM (inactive); in experiment [9] it was 3.86 µM (inactive); in experiment [10], 15.6 µM (inactive); in experiment [11], 14.4 µM (inactive); in experiment [12] it was 17.4 µM (inactive). Besides, the GI50 is 7.85 µM (inactive) in experiment [13]; 38 µM (inactive) in experiment [14]; 1.89 µM (inactive) in experiment [15]; 7.35 µM (inactive) in experiment [16]; 18.4 µM (inactive) in experiment [17]; 2.53 µM (inactive) in experiment [18]. The GI50 in experiment [19] was 18.3 µM (inactive).

Consider `Cc1ccc(I)cc1N=C=S`, for which the GI50 in experiment [1] was 23.5 µM (inactive); in experiment [2], 17.8 µM; in experiment [3] it was 21.2 µM (inactive); in [4], 22.8 µM (inactive); in experiment [5], 13.3 µM (inactive); in experiment [6], 23.5 µM (inactive). Moreover, the GI50 is 19.5 µM (inactive) in experiment [7]; 25.9 µM (inactive) in experiment [8]; 23 µM (inactive) in [9]; 17.3 µM (inactive) in experiment [10]; 23.4 µM (inactive) in experiment [11]; 36 µM (inactive) in [12]. The GI50 was 26.9 µM (inactive) in [13]; 20.8 µM (inactive) in experiment [14]; 21.8 µM (inactive) in [15]; 17.8 µM (inactive) in experiment [16]; 43.4 µM (inactive) in [17]; 32.7 µM (inactive) in experiment [18]. Further, the GI50 in [19] is 23.7 µM (inactive).

As to `COc1cc2ncnc(Nc3cccc(Cl)c3)c2cc1OC` [TYRPHOSTIN AG-1478], the GI50 is 9.38 µM (inactive) in experiment [1]; 9.25 µM in experiment [2]; 2.54 µM (inactive) in experiment [3]; 0.0446 µM (active) in experiment [4]; 1.42 µM (inactive) in experiment [5]; 13.4 µM (inactive) in [6]. The GI50 is 15.2 µM (inactive) in experiment [7]; 3.63 µM (inactive) in experiment [8]; 8.71 µM (inactive) in experiment [9]; 4.47 µM (inactive) in experiment [10]; 9.46 µM (inactive) in [11]; 0.173 µM (active) in experiment [12]. Besides, the GI50 is 18.1 µM (inactive) in [13]; 8.85 µM (inactive) in experiment [14]; 3.82 µM (inactive) in experiment [15]; 9.27 µM (inactive) in experiment [16]; 5.19 µM (inactive) in experiment [17]; 16.1 µM (inactive) in experiment [18]. Besides, in experiment [19], the GI50 is 0.392 µM (active).

Consider `NC(=O)NC(CC(=O)O)C(=O)O` (centres undefined), for which the GI50 is > 100 µM (inactive) in experiment [1]; > 100 µM in experiment [2]; > 100 µM (inactive) in experiment [3]; > 100 µM (inactive) in experiment [4]; > 100 µM (inactive) in experiment [5]; > 100 µM (inactive) in [6]. Also, the GI50 in experiment [7], in [8], in experiment [9], in experiment [10], in experiment [11] and in [12] was > 100 µM (inactive) throughout. Also, the GI50 in experiment [13], in experiment [14], in [15], in [16], in [17] and in experiment [18] was > 100 µM (inactive) throughout. For the same molecule, the GI50 in experiment [19] is > 100 µM (inactive).

`O=C1C=C(N2CCN(CCOCCO)CC2)C(=O)c2c(O)ccc(O)c21`: the GI50 was 4.48 µM (inactive) in experiment [1]; 1.64 µM in [2]; 14.4 µM (inactive) in experiment [3]; 7.4 µM (inactive) in [4]; 11.9 µM (inactive) in [5]; 2.92 µM (inactive) in experiment [6]. Besides, the GI50 in experiment [7] is 4.02 µM (inactive); in experiment [8] it was 2.94 µM (inactive); in experiment [9], 3.17 µM (inactive); in experiment [10] it was 10.3 µM (inactive); in experiment [11], 3.9 µM (inactive); in experiment [12] it was 9.64 µM (inactive). The GI50 in experiment [13] is 3.76 µM (inactive); in [14] it was 4.44 µM (inactive); in experiment [15], 3.17 µM (inactive); in [16] it was 6.97 µM (inactive); in experiment [17], 7.89 µM (inactive); in experiment [18], 2.31 µM (inactive). In addition, the GI50 in experiment [19] was 19.6 µM (inactive).

As to `COc1ccc(N(C(=O)Nc2ccc(Cl)c(Cl)c2)C2c3cccn3C(=O)N2c2ccc(Cl)c(Cl)c2)cc1` (centres undefined), the GI50 is > 100 µM (inactive) in [1]; 94 µM in [2]; 27.7 µM (inactive) in [3]; > 100 µM (inactive) in experiment [4]; > 100 µM (inactive) in experiment [5]; 24.9 µM (inactive) in experiment [6]. Also, the GI50 is > 100 µM (inactive) in experiment [7]; > 100 µM (inactive) in experiment [8]; 13.8 µM (inactive) in [9]; > 100 µM (inactive) in [10]; 16.4 µM (inactive) in [11]; > 100 µM (inactive) in experiment [12]. Also, the GI50 in experiment [13] was 30.1 µM (inactive); in experiment [14], 0.0724 µM (active); in experiment [15], 36 µM (inactive); in experiment [16], > 100 µM (inactive); in experiment [17] it was 51.3 µM (inactive); in experiment [18], > 100 µM (inactive). In [19], the GI50 is 42.3 µM (inactive).

With `CC(C)(N)CO[C@H]1C[C@H]2CC[C@@]1(C)C2(C)C`, the GI50 in experiment [1] is 12.4 µM (inactive); in [2] it was 19.8 µM; in experiment [3] it was 27.2 µM (inactive); in experiment [4] it was 34.9 µM (inactive); in [5] it was 23.1 µM (inactive); in experiment [6] it was 17.9 µM (inactive). Besides, the GI50 was 18.1 µM (inactive) in experiment [7]; 32.4 µM (inactive) in experiment [8]; 18.2 µM (inactive) in experiment [9]; 16.5 µM (inactive) in [10]; 18.5 µM (inactive) in experiment [11]; 20 µM (inactive) in experiment [12]. For the same molecule, the GI50 is 23.1 µM (inactive) in [13]; 15.7 µM (inactive) in experiment [14]; 25.2 µM (inactive) in experiment [15]; 18.5 µM (inactive) in [16]; 14.2 µM (inactive) in experiment [17]; 23.7 µM (inactive) in [18]. In addition, the GI50 in experiment [19] was 28.3 µM (inactive).
